Data from US8609729B2, “Method for treating macular degeneration” (Sucampo AG, priority 2009, dated 2013).

Tests used:
Assay type in all cases: cell-based
[1] = system: Human retinal pigment epithelium cells (ARPE-19 cells); assay: Trans-Epithelial Resistance (TER) of ARPE-19 cells treated with tert-butyl hydroperoxide (tBH); settings: 100 nM Compound A plus 100 μM tBH; TER at 0, 6, 18, 24 and 48 hours; FIG. 1
Procedure: (§1) Human retinal pigment epithelium cells (ARPE-19 cells, purchased from American Type Culture Collection (ATCC)) were used in the study. ARPE-19 cells were grown on Corning Transwell 0.4 μm pore size filters (Corning Incorporated, NY, USA) in Dulbecco's modified Eagles medium containing 10% fetal calf serum. Trans-Epithelial Resistance (TER) of the cultured cells was determined using an EVOM volt-ohm meter. The TER of the cultured cells was determined by subtracting the resistance value measured with the filter alone from the value measured with the cultured cells.
The cells were grown until they reached a TER of approximately 50 Ohm/1.2 cm^2. They were then treated with 100 μM tert-butyl hydroperoxide (tBH) in 0.1% decane, 100 nM Compound A (isopropyl unoprostone, i.e. 13,14-dihydro-15-keto-20-ethyl-PGF2α isopropyl ester) in DMSO (0.1% final DMSO), or a combination of tBH plus Compound A. TER was determined at 0, 6, 18, 24 and 48 hours after the treatment.

[2] = system: Human retinal pigment epithelium cells (ARPE-19 cells); assay: Barrier function: passage of 3,000 Dalton FITC-labeled dextran from apical to basolateral media of tBH-treated ARPE-19 cells; settings: 100 nM Compound A plus 100 μM tBH; dextran added at 20 hours, fluorescence at 44 hours; FIG. 2
Procedure: as §1
ARPE-19 cells grown until they reached a TER of approximately 50 Ohm/1.2 cm^2 were treated with 100 μM tBH in 0.1% decane, 100 nM Compound A in DMSO (0.1% final DMSO), or a combination of tBH plus Compound A (initial treatment). At 20 hours after the initial treatment, 3,000 Dalton FITC-labeled dextran was added at a concentration of 0.1 mg/ml to the apical surface of the cell culture and the culture was further incubated. Fluorescence of the media bathing the basolateral surface was then measured at 44 hours. Wavelengths for FITC were 494 ex/518 em.

[3] = system: Human retinal pigment epithelium cells (ARPE-19 cells); assay: Protection from light induced cell death in A2E containing RPE cells (WST-8 viability)
Procedure: Protection by Compound A from light induced cell death in pyridinium bis-retinoid (A2E) containing retinal pigment epithelium (RPE) cells
Human retinal pigment epithelium cells (ARPE-19 cells) were used in the study. ARPE-19 cells were maintained in DMEM/F12 medium (supplemented with 10% FBS and 1% Penicillin-Streptomycin Mixed Sol.) in 25 cm^2 or 75 cm^2 culture flask. For the experiment, the cells were seeded on multi-well chamber slides. After confirming the cells adhered to slide, the media were changed to pyridinium bis-retinoid (A2E) containing culture medium and the cells were cultured for 5-14 days The media were changed to phosphate buffered saline (containing A2E), and then the cells were exposed to blue light (430 nm) delivered from a halogen source for 20 min. Compound A dissolved in dimethyl sulfoxide was added 1 hr before the light: exposure (the final concentration was 10 and 50 nM). After the light exposure, the cells were cultured in the DMEM/F12 medium for 24 hours. The cells were then incubated in DMEM/F12 medium containing 10% WST-8 (without A2Z) for 4 hours. Absorbance at 450 nm was measured. An increase in the absorbance is indicative of cellular viability.

## CCCCCCCC(=O)CC[C@@H]1[C@@H](C/C=C\CCCC(=O)OC(C)C)[C@@H](O)C[C@H]1O [Compound A, 13,14-dihydro-15-keto-20-ethyl-PGF2α isopropyl ester]
[1]
  Effect on the loss of TER caused by tBH: protected against the loss of TER caused by tBH
[2]
  Effect on the loss of barrier function caused by tBH (passage of 3,000 Dalton fluorescent dextran): protected against the loss of barrier function caused by tBH
[3]; 10 and 50 nM, A2E + blue light exposure
  Effect on cell death induced by A2E/light exposure: prevented cell death induced by A2E/light exposure
[3]; Homo sapiens, ARPE-19, 10 nM, A2E + light exposure (430 nm, 20 min), compound added 1 hr before light, WST-8 after 24 hours
  viability at 0.01 µM: 90%
[3]; Homo sapiens, ARPE-19, 50 nM, A2E + light exposure (430 nm, 20 min), compound added 1 hr before light, WST-8 after 24 hours
  viability at 0.05 µM: 89%
